{"source": "patent US20260285932A1", "about": "“PEPTIDE TYROSINE-TYROSINE ANALOG AND USE THEREOF” (THE UNITED BIO-TECHNOLOGY (HENGQIN) CO., LTD., priority 2023, published 2026)", "key": {"[1]": {"experiment": "pharmacokinetics in SD rats", "type": "in vivo", "details": "male rat, 0.492 mg/kg single s.c., plasma", "method": "(§1) Blood samples were collected from each animal at each time point after administration, and the blood samples were centrifuged at around 4° C., 3200 g, for 10 minutes. Plasma was collected separately, transferred to pre-labeled 96-well plates or polypropylene tubes, speedily frozen on dry ice, and stored at −60° C. or lower until LC-MS/MS analysis.\n(§2) LC-MS/MS method was adopted to determine the concentration of the measured analogues in blood samples. The data on the changes in plasma concentration over time were plotted into a chart and analyzed using non partitioned methods with Phoenix WinNonlin 6.3 software program. Relevant PK parameters were calculated based on the administration routes.\nThe plasma pharmacokinetics of PYY analogues in male SD rats were evaluated after a single subcutaneous administration of 0.492 mg/kg Analogue 3. Blood samples were collected from 3 rats at each time point after administration for 0.5 h, 1 h, 2 h, 4 h, 8 h, 12 h, 16 h, 24 h, 48 h, 72 h, 96 h, 120 h, 144 h, 168 h, extending to 168 h. Due to the use of discontinuous sampling to evaluate the kinetics of PYY analogues in rats, the pharmacokinetic parameters of Analogue 3 after a single subcutaneous administration of 0.492 mg/kg were listed using average concentration-time data."}, "[2]": {"biological_target": "T1, human NPY1 receptor (hNPY1R) (Homo sapiens, UniProt P25929)", "T1 construct": "expressed in transfected cells", "T1 sequence (P25929 1-384)": "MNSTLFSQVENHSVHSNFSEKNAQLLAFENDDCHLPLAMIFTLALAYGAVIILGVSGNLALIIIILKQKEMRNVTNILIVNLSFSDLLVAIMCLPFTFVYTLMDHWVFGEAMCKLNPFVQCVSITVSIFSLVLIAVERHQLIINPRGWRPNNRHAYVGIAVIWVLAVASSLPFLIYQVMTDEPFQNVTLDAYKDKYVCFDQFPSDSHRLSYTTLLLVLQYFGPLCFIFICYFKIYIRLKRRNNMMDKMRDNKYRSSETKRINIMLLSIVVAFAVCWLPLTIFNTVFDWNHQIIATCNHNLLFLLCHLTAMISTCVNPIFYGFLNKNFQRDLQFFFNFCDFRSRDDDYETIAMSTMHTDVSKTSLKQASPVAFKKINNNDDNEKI", "experiment": "calcium flux (FLIPR) assay, functional activity on human NPY1 receptor", "type": "cell-based", "details": "average, at least 3 independent tests", "protocol": "(§3) 1) Preheated the culture medium, 1×DPBS and 0.05% trypsin EDTA in a 37° C. water bath for more than 30 minutes in advance, and ready for use.\n(§4) 3) Cultured cells were taken out from the incubator, added with 1×DPBS, incubated for a moment, suctioned to remove DPBS, added with an appropriate amount of 0.05% trypsin-EDTA for cell digestion, digestion terminated with 10% FBS medium, and dispersed the cells.\n(§5) 4) The dispersed cells were transferred into a 50 mL centrifuge tube using a pipette, centrifuged at 1000 rpm for 5 minutes, resuspended in culture medium, dispersed, and counted.\n(§6) 5) The cells were diluted with culture medium to 1×10^6 cells/mL, and inoculated at a volume of 20 μL/well of cells onto 384-well poly-Lysine-coated cell plates.\n(§7) 6) The cells were incubated overnight at 37° C. in an incubator with 5% CO2. […]\n(§8) 4) The calcium ion activation rate was calculated for each well: % Activity=(signal value of sample well-average signal value of low-signal control well)/(average signal value of high-signal control well-average signal value of low-signal control well). Using the logarithm of the concentration of analogues as the horizontal axis and the activation rate of calcium ion fluorescence signal as the vertical axis, the “Nonlinear regression (curve fit)-log (antigen) vs. response Variable slope” model in GraphPad Prism 5.0 was used for fitting to calculate the EC50 of the sample."}, "[3]": {"experiment": "food intake and body weight of normal mice after a single subcutaneous injection", "type": "in vivo", "details": "C57BL/6 mice, over 3 days; for Body weight changes: vs baseline", "method": "6-8 weeks old male C57BL/6 mice were fed in animal feeding rooms with strictly controlled environmental conditions, the temperature in the feeding room was maintained at 20° C.-24° C. and the humidity was maintained at 30%-70%. The light cycle in the animal feeding room was 12 hours (starting at 7:00 am and ending at 7:00 pm). During the experiment, animals were kept in single cages and toys were provided in each cage. During the experiment, animals were free to consume food (growth/reproduction feed for mice and rats) and water.\nBody weight without fasting and initial food weight before administration were recorded, and the animals were administered with a single subcutaneous injection, and the daily body weight and food intake weight were recorded for 3 days after administration. The activity, water intake, diet, and body weight changes of animals were observed every day. The changes in body weight and food intake weight were calculated compared to the baseline levels of each group (the initial body weight and food intake weight before administration), with body weight changes expressed as percentages (baseline was 100%)."}, "[4]": {"biological_target": "T2, recombinant human NPY2 receptor (Homo sapiens, UniProt P49146)", "T2 construct": "expressed in transfected cells; host or cells: HEK 293", "T2 sequence (P49146 1-381)": "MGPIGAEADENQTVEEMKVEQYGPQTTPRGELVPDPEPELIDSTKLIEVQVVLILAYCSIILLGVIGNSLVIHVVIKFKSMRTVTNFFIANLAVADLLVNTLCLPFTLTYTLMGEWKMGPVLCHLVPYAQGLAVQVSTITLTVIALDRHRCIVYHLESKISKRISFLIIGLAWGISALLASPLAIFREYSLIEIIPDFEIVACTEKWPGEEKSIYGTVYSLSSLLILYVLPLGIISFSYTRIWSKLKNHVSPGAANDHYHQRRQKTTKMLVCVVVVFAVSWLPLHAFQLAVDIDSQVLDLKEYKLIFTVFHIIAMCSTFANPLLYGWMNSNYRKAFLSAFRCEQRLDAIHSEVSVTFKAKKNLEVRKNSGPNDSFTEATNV", "experiment": "cAMP assay, in vitro functional activity on NPY2 receptors", "type": "cell-based", "details": "inhibition of Forskolin-induced cAMP in HEK 293 cells overexpressing hNPY2R; average, at least 3 independent tests", "method": "2) Preparation of cells: the cultured cells were collected into a 15 mL sterile centrifuge tube, and centrifuged at 1000 rpm for 5 minutes, with the supernatant being discarded. 10 mL of 1×PBS was added, mixed gently, and centrifuged at 1000 rpm for 5 minutes, with the supernatant being discarded.\n4) According to the arrangement order of Map analogues, 100 nL of prepared analogues were added to a 384-well cell reaction plate using Echo. After addition, they were centrifuged at 1000 rpm for 1 minute.\n5) 5 μL of 2 μM Forskolin (prepared with detection buffer) was added to a 384-well cell reaction plate using Multidrop Combi and centrifuged at 1000 rpm for 1 minute. 5 μL of detection buffer containing cells was added to a 384-well reaction plate, ensuring a cell count of 3000 cells per well.\n6) 10 μL cAMP detection reagent solution (1×cell lysis buffer 9.5 mL, 1×D2-cAMP solution, 1×cAMP-antibody) was added to the corresponding wells of the cell reaction plate using Multidrop Combi. It was covered with a lid and incubated at room temperature in the dark for 1 hour.\n7) After incubation for 1 hour, it was placed in an EnVision microplate reader for measurement."}, "[5]": {"biological_target": "T3, human Y5 receptor (hNPY5R) (Homo sapiens, UniProt Q15761)", "T3 sequence (Q15761 1-445)": "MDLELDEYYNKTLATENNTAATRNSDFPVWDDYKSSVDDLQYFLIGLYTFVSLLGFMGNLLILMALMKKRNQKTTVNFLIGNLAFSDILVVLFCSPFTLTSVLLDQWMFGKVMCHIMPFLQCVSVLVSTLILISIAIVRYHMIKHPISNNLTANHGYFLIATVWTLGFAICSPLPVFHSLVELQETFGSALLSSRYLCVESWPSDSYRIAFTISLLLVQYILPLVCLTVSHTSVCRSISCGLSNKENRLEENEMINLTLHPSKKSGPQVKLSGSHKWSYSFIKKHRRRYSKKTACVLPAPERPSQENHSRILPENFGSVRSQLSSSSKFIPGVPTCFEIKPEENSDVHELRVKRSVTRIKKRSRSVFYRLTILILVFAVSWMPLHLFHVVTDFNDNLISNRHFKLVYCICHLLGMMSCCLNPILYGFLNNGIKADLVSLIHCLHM", "experiment": "calcium flux (FLIPR) assay, functional activity on human Y5 receptor", "details": "read-out: hNPY5R EC50, average, at least 3 independent tests", "protocol": "as §3, §4, §5, §6, §7, §8"}, "[6]": {"experiment": "pharmacokinetics in crab-eating macaques", "type": "in vivo", "details": "male crab-eating macaque, 0.246 mg/kg single s.c., plasma", "method": "as §1, §2\nThe plasma pharmacokinetics of PYY analogues in male crab-eating macaques were evaluated after a single subcutaneous administration of 0.246 mg/kg Analogue 3. Blood samples were collected from 2 crab-eating macaques at each time point after administration for 1 h, 2 h, 4 h, 8 h, 12 h, 24 h, 48 h, 72 h, 96 h, 120 h, 144 h, 168 h, 192 h, 240 h, 288 h, 336 h, 408 h, 504 h, extending to 504 hours. Due to the use of discontinuous sampling to evaluate the kinetics of PYY analogues in crab-eating macaques, the pharmacokinetic parameters of Analogue 3 after a single subcutaneous administration of 0.246 mg/kg were listed using average concentration-time data."}}, "data": [{"substance": "PKPEK(AEEAc-γGlu-CO(CH2)16COOH)PE-Aib-DASPEEWQRYY-Aib-ELRHYLNWLTRQRY-NH2 [Analogue 3]", "values": [{"measurement": "AUCinf", "setting": "[1]", "result": 79.609, "unit": "µg·h/mL"}, {"measurement": "Cmax", "setting": "[1]", "result": 1941, "unit": "ng/mL"}, {"measurement": "T1/2", "setting": "[1]", "result": 24.7, "unit": "h"}, {"measurement": "Tmax", "setting": "[1]", "result": 13.3, "unit": "h"}, {"measurement": "EC50", "setting": "[2]", "result": "> 50", "unit": "nM"}, {"measurement": "Accumulated food intake weight", "setting": "[3]; 3 nmol/kg single s.c.", "result": "9.73 ± 0.48", "unit": "g"}, {"measurement": "Body weight changes", "setting": "[3]; 3 nmol/kg single s.c.", "result": "−1.04% ± 2.02%"}, {"measurement": "Accumulated food intake weight", "setting": "[3]; 10 nmol/kg single s.c.", "result": "8.24 ± 0.27", "unit": "g"}, {"measurement": "Body weight changes", "setting": "[3]; 10 nmol/kg single s.c.", "result": "−0.69% ± 1.64%"}, {"measurement": "Accumulated food intake weight", "setting": "[3]; 30 nmol/kg single s.c.", "result": "6.24 ± 0.26", "unit": "g"}, {"measurement": "Body weight changes", "setting": "[3]; 30 nmol/kg single s.c.", "result": "−6.52% ± 1.37%"}, {"measurement": "EC50", "setting": "[4]", "result": 0.037, "unit": "nM"}, {"measurement": "EC50", "setting": "[5]", "result": 92.7, "unit": "nM"}, {"measurement": "AUCinf", "setting": "[6]", "result": 336.537, "unit": "µg·h/mL"}, {"measurement": "Cmax", "setting": "[6]", "result": 1775, "unit": "ng/mL"}, {"measurement": "T1/2", "setting": "[6]", "result": 125.5, "unit": "h"}, {"measurement": "Tmax", "setting": "[6]", "result": 12, "unit": "h"}]}, {"substance": "PKPEK(AEEAc-γGlu-CO(CH2)16COOH)PEED-Aib-SPEEWQRYY-Aib-SLRHYLNWLTRQRY-NH2 [Analogue 1]", "values": [{"measurement": "EC50", "setting": "[2]", "result": "> 50", "unit": "nM"}, {"measurement": "Accumulated food intake weight", "setting": "[3]; 3 nmol/kg single s.c.", "result": "11.54 ± 0.40", "unit": "g"}, {"measurement": "Body weight changes", "setting": "[3]; 3 nmol/kg single s.c.", "result": "2.32% ± 2.53%"}, {"measurement": "Accumulated food intake weight", "setting": "[3]; 10 nmol/kg single s.c.", "result": "9.29 ± 0.27", "unit": "g"}, {"measurement": "Body weight changes", "setting": "[3]; 10 nmol/kg single s.c.", "result": "1.23% ± 2.92%"}, {"measurement": "Accumulated food intake weight", "setting": "[3]; 30 nmol/kg single s.c.", "result": "8.10 ± 0.26", "unit": "g"}, {"measurement": "Body weight changes", "setting": "[3]; 30 nmol/kg single s.c.", "result": "0.51% ± 2.56%"}, {"measurement": "EC50", "setting": "[4]", "result": 0.041, "unit": "nM"}]}]}
